Source: patent US20070082953A1, “Use of l-dopa, derivatives thereof and medicaments comprising said compounds for the prophylaxis of psychotic diseases” (priority 2003, published 2007)

System: patients with acute schizophrenia
Assay: Relapse prophylaxis in schizophrenia patients withdrawn from fluphenazine maintenance therapy
Assay type: in vivo
Settings: ten clinically stable patients taken off fluphenazine; L-dopa or L-dopa combination preparation given 2 months prior to withdrawal and during the entire withdrawal phase; about 8 of 10 relapses expected within 12 months per literature
Description: Ten patients with acute schizophrenia, who had accordingly received maintenance therapy with fluphenazine for more than one year and were clinically stable, were successively taken off this drug. According to clinical experience (see Gitlin M., Nuechterlein K., Subotnik K. L. et al., Am. J. Psychiatry (2001) 158(11), pp. 1835-42), about 8 of the 10 patients would be expected to suffer a relapse within the following 12 months. Our patients were treated with L-dopa or a combination preparation containing L-dopa for 2 months prior to withdrawal and during the entire withdrawal phase. In these patients, a relapse occurred in only 2 of 10 cases.

## N[C@@H](Cc1ccc(O)c(O)c1)C(=O)O [L-dopa, 3,4-dihydroxy-L-phenylalanine]
  relapse occurred (cases with relapse out of patients treated): 2 of 10
